Data on 19 compounds can be found in patent publication US9062071B2, “Substituted piperidines as HDM2 inhibitors” (Merck Sharp & Dohme Corp, priority 2011, dated 2015).

SMILES strings stand for the structures.

This assay deals with HDM2 protein (Homo sapiens, UniProt Q00987). As to the kind of experiment: fluorescence polarization screening assay (FP IC50). Type of assay: binding. The following applies: class symbols. The protocol: The compounds were evaluated to determine activity at the HDM2 protein by known methods such as the fluorescence polarization screening assay that measures the inhibitory concentration that achieves 50% of maximal activity (FP IC50) and the dissociation constant for inhibitor binding (FP Ki). [Zhang et al., J. Analytical Biochemistry 331: 138-146 (2004)].
For orientation: Fluorescence polarisation rises when a labelled molecule tumbles more slowly, as on binding a larger partner.

Chain of HDM2 protein (Q00987 whole entry): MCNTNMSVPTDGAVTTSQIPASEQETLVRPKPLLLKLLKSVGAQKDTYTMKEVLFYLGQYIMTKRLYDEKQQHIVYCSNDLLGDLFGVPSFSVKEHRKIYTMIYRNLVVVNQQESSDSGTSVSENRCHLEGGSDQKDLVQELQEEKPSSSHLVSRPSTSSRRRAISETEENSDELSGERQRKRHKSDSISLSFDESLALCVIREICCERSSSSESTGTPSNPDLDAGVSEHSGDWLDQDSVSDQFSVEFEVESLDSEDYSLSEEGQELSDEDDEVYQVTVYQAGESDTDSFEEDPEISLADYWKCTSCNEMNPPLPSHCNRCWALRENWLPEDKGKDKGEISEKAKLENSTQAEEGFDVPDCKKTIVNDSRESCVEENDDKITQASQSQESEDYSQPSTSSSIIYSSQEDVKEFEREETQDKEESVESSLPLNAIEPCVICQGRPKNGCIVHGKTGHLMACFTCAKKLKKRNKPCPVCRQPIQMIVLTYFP

For orientation: IC50 means the concentration needed to halve the response being measured. A low value points to greater potency. For the compound `CCC[C@H]1N(C(=O)c2ncccc2C(F)(F)F)CCC[C@@]1(Oc1csc(C(F)(F)F)c1)C(=O)N1CCc2cc(Cl)ccc2C1CC(C)(C)C(=O)O` (stereo partly drawn) [Compound A64, 3-(6-chloro-2-{[(2R,3S)-2-propyl-1-{[3-(trifluoromethyl)pyridin-2-yl]carbonyl}-3-{[5-(trifluoromethyl)thiophen-3-yl]oxy}piperidin-3-yl]carbonyl}-1,2,3,4-tetrahydroisoquinolin-1-yl)-2,2-dimethylpropanoic acid], the IC50 is 1 to 100 nM.
The result for `CCC[C@H]1N(C(=O)c2ncccc2C(F)(F)F)CCC[C@@]1(Oc1csc(C(F)(F)F)c1)C(=O)N1Cc2ccc(F)cc2C[C@H]1C(=O)N1CCN(C)CC1` [Compound A160, (3S)-6-fluoro-3-[(4-methylpiperazin-1-yl)carbonyl]-2-{[(2R,3S)-2-propyl-1-{[3-(trifluoromethyl)pyridin-2-yl]carbonyl}-3-{[5-(trifluoromethyl)thiophen-3-yl]oxy}piperidin-3-yl]carbonyl}-1,2,3,4-tetrahydroisoquinoline] reads 101 to 20000 nM; that for `COCCN(C)CC[C@H]1N(C(=O)c2ncccc2C(F)(F)F)CCC[C@@]1(Oc1csc(C(F)(F)F)c1)C(=O)N1CCc2cc(Cl)ccc2C1` [Compound A117, 2-[(2R,3S)-3-[(6-chloro-3,4-dihydroisoquinolin-2(1H)-yl)carbonyl]-1-{[3-(trifluoromethyl)pyridin-2-yl]carbonyl}-3-{[5-(trifluoromethyl)thiophen-3-yl]oxy}piperidin-2-yl]-N-(2-methoxyethyl)-N-methylethanamine], 1 to 100 nM.
The result for `CCC[C@H]1N(C(=O)c2ncccc2C(F)(F)F)CCC[C@@]1(Oc1csc(C(F)(F)F)c1)C(=O)N1CCc2sc(Cl)cc2C1CC(C)(C)C(=O)O` (stereo partly drawn) [Compound A25, 3-(2-chloro-5-{[(2R,3S)-2-propyl-1-{[3-(trifluoromethyl)pyridin-2-yl]carbonyl}-3-{[5-(trifluoromethyl)thiophen-3-yl]oxy}piperidin-3-yl]carbonyl}-4,5,6,7-tetrahydrothieno[3,2-c]pyridin-4-yl)-2,2-dimethylpropanoic acid] reads 1 to 100 nM; that for `CCC[C@H]1N(C(=O)c2ncccc2C(F)(F)F)CCC[C@@]1(Oc1csc(C(F)(F)F)c1)C(=O)N1CCc2sc(Cl)cc2C1CCC(=O)NS(C)(=O)=O` (stereo partly drawn) [Compound A36, 3-(2-chloro-5-{[(2R,3S)-2-propyl-1-{[3-(trifluoromethyl)pyridin-2-yl]carbonyl}-3-{[5-(trifluoromethyl)thiophen-3-yl]oxy}piperidin-3-yl]carbonyl}-4,5,6,7-tetrahydrothieno[3,2-c]pyridin-4-yl)-N-(methylsulfonyl) propanamide], 1 to 100 nM.
Next, `CCC[C@H]1N(C(=O)c2ncccc2C(F)(F)F)CCC[C@@]1(Oc1csc(C(F)(F)F)c1)C(=O)N1CCc2cc(Cl)ccc2[C@@H]1CCC(=O)N1CCC(C(=O)O)CC1` [Compound A99, 1-{3-[(1S)-6-chloro-2-{[(2R,3S)-2-propyl-1-{[3-(trifluoromethyl)pyridin-2-yl]carbonyl}-3-{[5-(trifluoromethyl)thiophen-3-yl]oxy}piperidin-3-yl]carbonyl}-1,2,3,4-tetrahydroisoquinolin-1-yl]propanoyl}piperidine-4-carboxylic acid]: 1 to 100 nM; `CCC[C@H]1N(C(=O)c2ncccc2C(F)(F)F)CCC[C@@]1(Oc1csc(C(F)(F)F)c1)C(=O)N1CCc2sc(Cl)cc2C1CCC(=O)NC` (stereo partly drawn) [Compound A27, 3-(2-chloro-5-{[(2R,3S)-2-propyl-1-{[3-(trifluoromethyl)pyridin-2-yl]carbonyl}-3-{[5-(trifluoromethyl)thiophen-3-yl]oxy}piperidin-3-yl]carbonyl}-4,5,6,7-tetrahydrothieno[3,2-c]pyridin-4-yl)-N-methylpropanamide]: 101 to 20000 nM; `CCC[C@H]1N(C(=O)c2ncccc2C(F)(F)F)CCC[C@@]1(Oc1csc(C(F)(F)F)c1)C(=O)N1CCc2cc(-c3ccsc3)ccc2C1` [Compound A66, 2-{[(2R,3S)-2-propyl-1-{[3-(trifluoromethyl)pyridin-2-yl]carbonyl}-3-{[5-(trifluoromethyl)thiophen-3-yl]oxy}piperidin-3-yl]carbonyl}-6-thiophen-3-yl-1,2,3,4-tetrahydroisoquinoline]: 101 to 20000 nM.
`CCC[C@H]1N(C(=O)c2ncccc2C(F)(F)F)CCC[C@@]1(Oc1csc(C(F)(F)F)c1)C(=O)N1Cc2ccc(F)cc2C[C@H]1CN1CCC(O)CC1` [Compound A162, 1-{[(3S)-6-fluoro-2-{[(2R,3S)-2-propyl-1-{[3-(trifluoromethyl)pyridin-2-yl]carbonyl}-3-{[5-(trifluoromethyl)thiophen-3-yl]oxy}piperidin-3-yl]carbonyl}-1,2,3,4-tetrahydroisoquinolin-3-yl]methyl}piperidin-4-ol] gave an IC50 of 101 to 20000 nM.
As for `CCC[C@H]1N(C(=O)c2ncccc2C(F)(F)F)CCC[C@@]1(Oc1csc(C(F)(F)F)c1)C(=O)N1CCc2cc(F)ccc2C1CCCO` (stereo partly drawn) [Compound A51, 3-(6-fluoro-2-{[(2R,3S)-2-propyl-1-{[3-(trifluoromethyl)pyridin-2-yl]carbonyl}-3-{[5-(trifluoromethyl)thiophen-3-yl]oxy}piperidin-3-yl]carbonyl}-1,2,3,4-tetrahydroisoquinolin-1-yl)propan-1-ol], the IC50 is 1 to 100 nM.
Turning to `CCC[C@H]1N(C(=O)c2ncccc2C(F)(F)F)CCC[C@@]1(Oc1csc(C(F)(F)F)c1)C(=O)N1CCc2ccsc2C1CC(C)(C)C(=O)OCC` (stereo partly drawn) [Compound A28, ethyl 2,2-dimethyl-3-(6-{[(2R,3S)-2-propyl-1-{[3-(trifluoromethyl)pyridin-2-yl]carbonyl}-3-{[5-(trifluoromethyl)thiophen-3-yl]oxy}piperidin-3-yl]carbonyl}-4,5,6,7-tetrahydrothieno[2,3-c]pyridin-7-yl)propanoate], the concentration for half-maximal inhibition (IC50) was 101 to 20000 nM.
The result for `CCC[C@H]1N(C(=O)c2ncccc2C(F)(F)F)CCC[C@@]1(Oc1csc(C(F)(F)F)c1)C(=O)N1Cc2ccc(Cl)cc2C[C@@H]1CCC(=O)NO` [Compound A145, 3-[(3S)-6-chloro-2-{[(2R,3S)-2-propyl-1-{[3-(trifluoromethyl)pyridin-2-yl]carbonyl}-3-{[5-(trifluoromethyl)thiophen-3-yl]oxy}piperidin-3-yl]carbonyl}-1,2,3,4-tetrahydroisoquinolin-3-yl]-N-hydroxypropanamide] reads 1 to 100 nM; that for `CCC[C@H]1N(C(=O)c2ncccc2C(F)(F)F)CCC[C@@]1(Oc1csc(C(F)(F)F)c1)C(=O)N1CCc2cc(S(C)(=O)=O)ccc2C1` [Compound A90, 6-(methylsulfonyl)-2-{[(2R,3S)-2-propyl-1-{[3-(trifluoromethyl)pyridin-2-yl]carbonyl}-3-{[5-(trifluoromethyl)thiophen-3-yl]oxy}piperidin-3-yl]carbonyl}-1,2,3,4-tetrahydroisoquinoline], 101 to 20000 nM.
The compound `C=CC[C@H]1N(C(=O)c2ncccc2C(F)(F)F)CCC[C@@]1(Oc1csc(C(F)(F)F)c1)C(=O)N1CCc2cc(Cl)ccc2C1C(=O)O` (stereo partly drawn) [Compound A113, 6-chloro-2-{[(2R,3S)-2-prop-2-en-1-yl-1-{[3-(trifluoromethyl)pyridin-2-yl]carbonyl}-3-{[5-(trifluoromethyl)thiophen-3-yl]oxy}piperidin-3-yl]carbonyl}-1,2,3,4-tetrahydroisoquinoline-1-carboxylic acid] showed an IC50 of 1 to 100 nM.
The result for `CCC[C@H]1N(C(=O)c2ncccc2C(F)(F)F)CCC[C@@]1(Oc1csc(C(F)(F)F)c1)C(=O)N1CCc2cc(Cl)sc2C1C(=O)O` (stereo partly drawn) [Compound A19, 2-chloro-6-{[(2R,3S)-2-propyl-1-{[3-(trifluoromethyl)pyridin-2-yl]carbonyl}-3-{[5-(trifluoromethyl)thiophen-3-yl]oxy}piperidin-3-yl]carbonyl}-4,5,6,7-tetrahydrothieno[2,3-c]pyridine-7-carboxylic acid] reads 1 to 100 nM.
`CCC[C@H]1N(C(=O)c2ncccc2C(F)(F)F)CCC[C@@]1(Oc1csc(C(F)(F)F)c1)C(=O)N1CCc2ccsc2C1CC(C)(C)C(=O)NCc1nnn[nH]1` (stereo partly drawn) [Compound A30, 2,2-dimethyl-3-(6-{[(2R,3S)-2-propyl-1-{[3-(trifluoromethyl)pyridin-2-yl]carbonyl}-3-{[5-(trifluoromethyl)thiophen-3-yl]oxy}piperidin-3-yl]carbonyl}-4,5,6,7-tetrahydrothieno[2,3-c]pyridin-7-yl)-N-(1H-tetrazol-5-ylmethyl)propanamide] had an IC50 of 1 to 100 nM.
With `CCC[C@H]1N(C(=O)c2ncccc2C(F)(F)F)CCC[C@@]1(Oc1csc(C(F)(F)F)c1)C(=O)N1CCc2cc(Cl)ccc2C1CN1CCOCC1` (stereo partly drawn) [Compound A12, 6-chloro-1-(morpholin-4-ylmethyl)-2-{[(2R,3S)-2-propyl-1-{[3-(trifluoromethyl)pyridin-2-yl]carbonyl}-3-{[5-(trifluoromethyl)thiophen-3-yl]oxy}piperidin-3-yl]carbonyl}-1,2,3,4-tetrahydroisoquinoline], the IC50 lay in the range of 1 to 100 nM.
`CCC[C@H]1N(C(=O)c2ncccc2C(F)(F)F)CCC[C@@]1(Oc1csc(C(F)(F)F)c1)C(=O)N1Cc2ccc(Cl)cc2C[C@@H]1CN(C)C(=O)[C@@H](C)OC` [Compound A151, (2R)-N-{[(3R)-6-chloro-2-{[(2R,3S)-2-propyl-1-{[3-(trifluoromethyl)pyridin-2-yl]carbonyl}-3-{[5-(trifluoromethyl)thiophen-3-yl]oxy}piperidin-3-yl]carbonyl}-1,2,3,4-tetrahydroisoquinolin-3-yl]methyl}-2-methoxy-N-methylpropanamide] had an IC50 of 1 to 100 nM.
For the compound `CCC[C@H]1N(C(=O)c2ncccc2C(F)(F)F)CCC[C@@]1(Oc1csc(C(F)(F)F)c1)C(=O)N1CCc2cc(F)ccc2C1CC(=O)O` (stereo partly drawn) [Compound A56, (6-fluoro-2-{[(2R,3S)-2-propyl-1-{[3-(trifluoromethyl)pyridin-2-yl]carbonyl}-3-{[5-(trifluoromethyl)thiophen-3-yl]oxy}piperidin-3-yl]carbonyl}-1,2,3,4-. tetrahydroisoquinolin-1-yl)acetic acid], the IC50 was 1 to 100 nM.
